Residues, ends and D or L forms follow the SMILES beside them.
Key:
[1] = tested on: high fat fed C57BL/6J mice; test: Body weight gain in high fat fed C57BL/6J mice, 10 days s.c. treatment; type: in vivo; details: both doses 0.5 and 5 nmol/kg s.c. twice daily
Method: C57BL/6J mice were acclimatized in their new environment for 4 weeks with free access to a high fat diet and water. […] Throughout the study, body weights were recorded daily and used to administer the body weight-corrected doses of peptide (FIG. 6). Mice were sacrificed by cervical dislocation.

db/db mice = test: 6 weeks s.c. administration in db/db mice: HbA1c and body weight; type: in vivo; details: versus vehicle
Method: The HbA1c determination is based on Turbidimetric INhibition ImmunoAssay (TINIA) in which HbA1c in the sample reacts with anti-HbA1c to form soluble antigen-antibody complexes. Additions of polyhaptens react with excess anti-HbA1c antibodies to form an insoluble antibody-polyhapten complex, which can be measured turbidimetrically. Liberated hemoglobin in the hemolyzed sample is converted to a derivative having a characteristic absorption spectrum, which is measured bichromatically during the preincubation phases. The final result is expressed as percent HbA1c of total hemoglobin (Cobas®Application note A1C-2).
db/db (BKS.Cg-m+/+ Lepr^db/J) male mice, 5-6 weeks old, were obtained from Charles River Laboratories, Germany, and acclimatized in their new environment with free access to normal chow and water. […] Throughout the study, body weights were recorded daily and used to administer the body weight-corrected doses of peptide. HbA1c levels were measured on blood samples before treatment, and then once weekly during the study. […]
Blood samples were analyzed for HbA1c using the Cobas c111 analyzer (Roche Diagnostics, Mannheim, Germany). Samples for HbA1c analysis were analyzed within 24 hours of sampling.
Throughout the study, body weights were recorded daily and used to administer the body weight-corrected doses of peptide. […]

[2] = tested on: diet induced obese C57BL/6J mice; test: 3 weeks s.c. treatment in diet induced obese C57BL/6J mice: body weight and OGTT; type: in vivo; details: s.c. twice daily
Method: C57Bl/6J male mice, 6 weeks old, were acclimatized in their new environment with free access to a high fat diet and water. 36 weeks old, the animals were randomized into groups with similar average fasting (6 hours) blood glucose (assessed from blood samples taken from the tip of the tail). The mice were treated twice daily s.c. for three weeks with compound 6 or vehicle. Body weight was recorded daily. After peptide treatment an oral glucose tolerance test (OGTT) were performed after subjecting the animals to a 6 hour fast. Animals were dosed with peptide or vehicle in the morning. Approximately four hours later an initial blood sample (fasting blood glucose level) was taken. Thereafter an oral dose of glucose was given and the animals were returned to their home cages (t=0). BG was measured at t=15 min, t=30 min, t=60 min, t=90 min and t=120 min. All animals were sacrificed immediately following blood sampling by CO2 anesthesia followed by cervical dislocation.

high fat diet fed mice = test: 3 weeks s.c. treatment, lipids in 30 weeks high fat diet fed mice; type: in vivo; details: 30 weeks high fat diet mice, 10 nmol/kg s.c. twice daily
Method: The assay is an enzymatic colorimetric method. In the presence of magnesium ions, dextran sulfate selectively forms water-soluble complexes with LDL, VLDLA and chylomicrons, which are resistant to PEG-modified enzymes. The HDL cholesterol is determined enzymatically by cholesterol esterase and cholesterol oxidase coupled with PEG to the amino groups. Cholesterol esters are broken down quantitatively to free cholesterol and fatty acids. HDL cholesterol is enzymatically oxidized to choles-4-en-3-one and H2O2, and the formed H2O2 is measured colorimetrically (Cobas®; Application note HDLC3).
The direct determination of LDL takes advantage of the selective micellary solubilization of LDL by a nonionic detergent and the interaction of a sugar compound and lipoproteins (VLDL and chylomicrons). The combination of a sugar compound with detergent enables the selective determination of LDL in plasma. The test principle is the same as that of cholesterol and HDL, but due to the sugar and detergent only LDL-cholesterol esters are broken down to free cholesterol and fatty acids. Free cholesterol is then oxidized and the formed H2O2 is measured colorimetrically (Application note LDL_C, Cobas®).
The effect was measured on LDL, HDL and triglycerides (CHO: Total Cholesterol; HDL: High Density Cholesterol; LDL: Low Density Cholesterol; TRIG: Triglycerides; HDULDL: Ratio between HDL and LDL).

GLP-1 receptor = GLP-1 receptor (Homo sapiens, UniProt P43220); test: Class B GPCR counterscreen, calcium flux agonist format; type: cell-based; details: at 12.5 μM and 125 nM
GLP-1 receptor, sequence (P43220 24-463): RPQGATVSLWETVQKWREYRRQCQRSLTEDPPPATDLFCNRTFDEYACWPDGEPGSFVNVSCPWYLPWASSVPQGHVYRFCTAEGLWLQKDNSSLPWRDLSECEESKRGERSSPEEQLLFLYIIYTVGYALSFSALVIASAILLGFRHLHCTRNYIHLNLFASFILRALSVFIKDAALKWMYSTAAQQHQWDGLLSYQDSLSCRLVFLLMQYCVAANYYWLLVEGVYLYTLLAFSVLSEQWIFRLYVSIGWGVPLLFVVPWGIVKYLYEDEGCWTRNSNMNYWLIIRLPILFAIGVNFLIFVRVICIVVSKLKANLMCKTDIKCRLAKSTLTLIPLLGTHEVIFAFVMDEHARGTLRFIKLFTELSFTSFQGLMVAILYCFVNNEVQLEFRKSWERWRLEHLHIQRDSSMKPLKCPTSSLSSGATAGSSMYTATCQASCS
Description: (§1) The protocol design is as follows:

Glucagon receptor = Glucagon receptor (Homo sapiens, UniProt P47871); details: at 12.5 μM and 125 nM
Glucagon receptor, sequence (P47871 26-477): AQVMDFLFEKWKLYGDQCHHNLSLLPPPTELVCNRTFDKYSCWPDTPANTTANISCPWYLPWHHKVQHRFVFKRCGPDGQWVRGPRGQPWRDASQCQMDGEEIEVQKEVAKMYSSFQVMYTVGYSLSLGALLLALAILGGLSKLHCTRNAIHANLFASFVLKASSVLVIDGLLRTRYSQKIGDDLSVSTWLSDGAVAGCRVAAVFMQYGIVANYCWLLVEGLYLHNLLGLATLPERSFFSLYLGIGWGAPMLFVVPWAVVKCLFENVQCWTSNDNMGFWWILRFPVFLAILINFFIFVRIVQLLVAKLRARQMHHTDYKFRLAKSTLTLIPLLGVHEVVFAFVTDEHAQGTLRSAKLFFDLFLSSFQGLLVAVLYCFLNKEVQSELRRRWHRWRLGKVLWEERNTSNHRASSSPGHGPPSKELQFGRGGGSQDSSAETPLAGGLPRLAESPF
Method: Unless specified otherwise, the sample compounds were diluted in 100% anhydrous DMSO including all dilutions. If the sample compound is provided in a different solvent all master stock dilutions are performed in the specified solvent. All control wells contained identical solvent final concentrations as the sample compound wells.
Reference agonists were handled as mentioned above serving as assay control. The reference agonists were handled as described above for Emax.

CRF2 receptor = molecular target: T1, CRF2 receptor (Homo sapiens, UniProt Q13324); test: Class B GPCR counterscreen, calcium flux antagonist format; type: cell-based; details: at 10 μM
T1 sequence (Q13324 1-411): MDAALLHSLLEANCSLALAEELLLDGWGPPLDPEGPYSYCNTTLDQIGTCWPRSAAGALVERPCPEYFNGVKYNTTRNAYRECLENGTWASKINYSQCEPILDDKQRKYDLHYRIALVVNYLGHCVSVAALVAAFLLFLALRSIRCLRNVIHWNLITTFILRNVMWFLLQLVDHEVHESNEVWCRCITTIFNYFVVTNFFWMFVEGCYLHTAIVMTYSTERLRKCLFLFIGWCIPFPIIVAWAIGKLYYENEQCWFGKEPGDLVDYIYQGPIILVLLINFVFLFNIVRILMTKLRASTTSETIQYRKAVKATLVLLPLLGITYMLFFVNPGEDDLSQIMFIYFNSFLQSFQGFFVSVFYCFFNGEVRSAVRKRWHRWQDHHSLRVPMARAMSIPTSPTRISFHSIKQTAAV
Method: as §1
(§2) Using the EC80 values determined previously, stimulated all pre-incubated sample compound and reference antagonist (if applicable) wells with EC80 of reference agonist.
(§3) Read for 180 seconds using the FLIPR^TETRA (this addition added reference agonist to respective wells)—then fluorescence measurements were collected to calculate IC50-values.

GIP receptor = molecular target: T2, GIP receptor (Homo sapiens, UniProt P48546); test: as above; type: cell-based; details: at 10 μM and 100 nM
T2 sequence (P48546 22-466): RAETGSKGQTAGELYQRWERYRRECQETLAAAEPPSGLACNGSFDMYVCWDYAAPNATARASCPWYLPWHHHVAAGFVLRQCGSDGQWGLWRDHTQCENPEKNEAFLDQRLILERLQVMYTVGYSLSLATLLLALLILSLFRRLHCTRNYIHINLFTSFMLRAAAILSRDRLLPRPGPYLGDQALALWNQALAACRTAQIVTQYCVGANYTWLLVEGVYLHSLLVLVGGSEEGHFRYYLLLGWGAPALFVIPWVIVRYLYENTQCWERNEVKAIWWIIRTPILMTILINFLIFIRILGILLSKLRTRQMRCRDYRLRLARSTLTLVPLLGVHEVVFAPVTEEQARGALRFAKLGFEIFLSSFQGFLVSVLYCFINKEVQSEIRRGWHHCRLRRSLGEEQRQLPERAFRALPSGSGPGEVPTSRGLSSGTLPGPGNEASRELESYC
Method: as §1, §2, §3

Secretin receptor = Secretin receptor (Homo sapiens, UniProt P47872); test: as above; type: cell-based; details: at 10 μM
Secretin receptor, sequence (P47872 23-440, species assumed): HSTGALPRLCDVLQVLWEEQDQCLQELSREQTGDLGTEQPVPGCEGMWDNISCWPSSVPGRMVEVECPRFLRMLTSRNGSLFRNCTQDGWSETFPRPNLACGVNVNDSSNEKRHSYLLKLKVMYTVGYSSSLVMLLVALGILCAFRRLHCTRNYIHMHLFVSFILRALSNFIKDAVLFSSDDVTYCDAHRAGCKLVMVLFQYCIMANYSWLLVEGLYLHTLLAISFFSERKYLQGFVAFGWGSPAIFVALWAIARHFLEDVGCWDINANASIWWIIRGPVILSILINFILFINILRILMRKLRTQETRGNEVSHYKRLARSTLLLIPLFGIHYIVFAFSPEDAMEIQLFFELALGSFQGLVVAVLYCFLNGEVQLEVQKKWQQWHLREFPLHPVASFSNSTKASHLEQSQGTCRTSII
Method: as §1, §2, §3

in vivo = details: male, cynomolgus monkey
Method: Plasma samples were withdrawn at the following time points; predose, 5, 10, 30 min, 1, 2, 4, 8, 12, 24 and 36 h post i.v. dosing and predose, 10, 30 min, 1, 2, 4, 8, 12, 24, 36 and 48 h post s.c. dosing. The vehicle consisted of 25 mM phosphate buffered saline at pH 7.4 (25 mM sodium phosphate, 25 mM NaCl). Plasma samples were analyzed using protein precipitation followed by solid phase extraction and LC-MS/MS analysis. Pharmacokinetic parameters were calculated using non-compartmental analysis in WinNonLin version 4.1.

[3] = diet induced obese C57BL/6J mice

Compound	effect on body weight gain [1]	effect on body weight gain (db/db mice; db/db mice, 5 nmol/kg s.c. twice daily, p<0.0001)	effect on increase in HbA1c over time (db/db mice; db/db mice, 1, 2.5 and 5 nmol/kg s.c. twice daily)	decrease of body weight ([2]; diet induced obese C57BL/6J mice (30 weeks high fat diet), p<0.05) [%]	body weight level reached compared with non-treated controls on regular chow diet [2, 3]	effect on fasting blood glucose [2, 3]	effect on glucose tolerance (decrease in AUC during OGTT) ([2]; diet induced obese C57BL/6J mice, 6 hour fast)	effect on HDL (high fat diet fed mice; P<0.001)	effect on LDL (high fat diet fed mice; P<0.001)	effect on total cholesterol (high fat diet fed mice; P<0.001)	effect on triglycerides (high fat diet fed mice; P<0.05)	effect on ratio HDULDL (high fat diet fed mice; p<0.001)	agonist activity, GLP-1 receptor (GLP-1 receptor)	agonist activity, Glucagon receptor (Glucagon receptor)	antagonist activity, CRF2 receptor (CRF2 receptor)	antagonist activity, GIP receptor (GIP receptor)	antagonist activity, Secretin receptor (Secretin receptor)	bioavailability (in vivo) [%]	Tmax (in vivo; sc, 20 nmol/kg) [h]
CCCCCCCCCCCCCCCC(=O)N[C@@H](CCC(=O)NCCCC[C@H](NC(=O)[C@H](CCC(=O)O)NC(=O)[C@H](CC(=O)O)NC(=O)[C@H](CC(C)C)NC(=O)[C@H](Cc1ccc(O)cc1)NC(=O)[C@H](CCCCN)NC(=O)[C@H](CO)NC(=O)[C@H](Cc1ccc(O)cc1)NC(=O)[C@H](CC(=O)O)NC(=O)[C@H](CO)NC(=O)[C@@H](NC(=O)[C@H](Cc1ccccc1)NC(=O)[C@@H](NC(=O)CNC(=O)[C@H](CCC(N)=O)NC(=O)C(C)(C)NC(=O)[C@@H](N)Cc1c[nH]cn1)[C@@H](C)O)[C@@H](C)O)C(=O)N[C@@H](CCCNC(=N)N)C(=O)N[C@@H](C)C(=O)N[C@@H](CCCCN)C(=O)N[C@@H](CC(=O)O)C(=O)N[C@@H](Cc1ccccc1)C(=O)N[C@H](C(=O)N[C@@H](CCC(=O)O)C(=O)N[C@@H](Cc1c[nH]c2ccccc12)C(=O)N[C@@H](CC(C)C)C(=O)N[C@@H](CC(C)C)C(=O)N[C@@H](CO)C(=O)N[C@@H](C)C(N)=O)[C@@H](C)CC)C(=O)O [Compound 7] (HELM PEPTIDE1{H.[Aib].Q.G.T.F.T.S.D.Y.S.K.Y.L.D.E.K.R.A.K.D.F.I.E.W.L.L.S.A.[am]}|PEPTIDE2{[CCCCCCCCCCCCCCCC(=O)[*:2]].[gGlu]}$PEPTIDE1,PEPTIDE2,17:R3-2:R2$$$V2.0)	significantly decreased body weight gain	–	–	–	–	–	–	–	–	–	–	–	–	–	–	–	–	–	–
CCCCCCCCCCCCCCCC(=O)N[C@@H](CCC(=O)NCCCC[C@H](NC(=O)[C@H](CCC(=O)O)NC(=O)[C@H](CC(=O)O)NC(=O)[C@H](CC(C)C)NC(=O)[C@H](Cc1ccc(O)cc1)NC(=O)[C@H](CCCCN)NC(=O)[C@H](CO)NC(=O)[C@H](Cc1ccc(O)cc1)NC(=O)[C@H](CC(=O)O)NC(=O)[C@H](CO)NC(=O)[C@@H](NC(=O)[C@H](Cc1ccccc1)NC(=O)[C@@H](NC(=O)CNC(=O)[C@H](CCC(N)=O)NC(=O)[C@H](CO)NC(=O)[C@@H](N)Cc1c[nH]cn1)[C@@H](C)O)[C@@H](C)O)C(=O)N[C@@H](CCCNC(=N)N)C(=O)N[C@@H](C)C(=O)N[C@@H](CCCCN)C(=O)N[C@@H](CC(=O)O)C(=O)N[C@@H](Cc1ccccc1)C(=O)N[C@H](C(=O)N[C@@H](CCC(=O)O)C(=O)N[C@@H](Cc1c[nH]c2ccccc12)C(=O)N[C@@H](CC(C)C)C(=O)N[C@@H](CC(C)C)C(=O)N[C@@H](CO)C(=O)N[C@@H](C)C(N)=O)[C@@H](C)CC)C(=O)O [Compound 6]	significantly decreased body weight gain	significantly decreased body weight gain compared to vehicle	did not at any time-point reduce the increase in HbA1c	38.7	stabilized to the same body weight as obtained by non-treated control animals on a regular chow diet	significantly decreased fasting blood glucose	no significant effect on glucose tolerance	significantly decreased	significantly decreased	significantly decreased	significantly decreased	increased significantly	exhibited agonist activities	exhibited agonist activities	exhibited antagonist activity	exhibited antagonist activity	exhibited antagonist activity	43	4 to 8

From patent US9403894B2, “Glucagon analogues” (Zealand Pharma A/S, priority 2010, dated 2016)
